Measured values taken from patent US11266712B2, “Antimicrobial peptides and methods of using the same” (Riptide Bioscience, Inc., priority 2018, dated 2022).

Columns and labels:
[1] = test system: S. aureus 29213; assay: Resistance development, 30 serial passages at sub-MIC; type: cell-based; conditions: after 30 days / 30 serial passages
Protocol: (§1) Sub-inhibitory concentrations of RP557, gentamicin and clindamycin were incubated with P. aeruginosa 27853 and S. aureus 29213 for 24 hours. Bacteria showing growth in the highest concentration were re-passaged in fresh dilutions containing sub-minimum inhibitory concentration (MIC) levels of each component for 30 consecutive passages.
as §1, with “FIG. 4A to 4B. […] Sub-inhibitory” for “Sub-inhibitory”, “passages; means are shown.” for “passages.”

[2] = test system: C. albicans (ATCC 44858); assay: Rodent model of vulvovaginal candidiasis; type: in vivo; conditions: rat, oral fluconazole
Protocol: FIG. 8A to 8B indicates topical treatment of exemplary peptide RP557 reduces rodent vaginal candidiasis. Effects of RP557, miconazole and oral fluconazole in a C. albicans vaginal infection rodent model. On Day 0, rats were inoculated intravaginally with C. albicans. RP557 and miconazole were administered twice daily (FIG. 8A). A separate group received oral fluconazole (FIG. 8B). Further details are provided in the experimental section.
RP557 was effective in eradicating C. albicans in a rodent model of vulvovaginal candidiasis (FIG. 8A-8B).
FIG. 8A to 8B. RP557 topical treatment reduces rodent vaginal candidiasis. Effects of RP557, miconazole and oral fluconazole in the C. albicans (ATCC 44858) vaginal infection rodent model. On Day 0, rats were inoculated intravaginally (IVG) with C. albicans at 1.46×10^7 CFU/rat. RP557 and miconazole at 20 mg/mL were administered IVG at 0.1 mL/rat twice daily at 8 hr intervals starting from 48 hr after infection for 3 days. CPUs were evaluated on Day 5 with limit of detection (LOD) 0.7 CFU/rat. Significant difference, compared to vehicle, determined by one-way ANOVA followed by Dunnett's test (*p<0.05, ****p<0.0001). A separate group receiving oral fluconazole; *p<0.05 versus 0.1 and 10 mg/kg fluconazole.

[3] = test system: P. aeruginosa 27853; assay: Resistance development, 30 serial passages at sub-MIC; type: cell-based; conditions: after 30 days / 30 serial passages
Protocol: as §1
as §1, with “FIG. 4A to 4B. […] Sub-inhibitory” for “Sub-inhibitory”, “passages; means are shown.” for “passages.”

## CCC[C@@H]1C[C@@H](C(=O)N[C@@H]([C@H]2O[C@H](SC)[C@H](O)[C@@H](O)[C@H]2O)[C@H](C)Cl)N(C)C1 [clindamycin]
[1]
  growth at multiple of the MIC after 30 days: 256 times the minimum inhibitory concentration (MIC)

## OC(Cn1cncn1)(Cn1cncn1)c1ccc(F)cc1F [fluconazole]
[2]
  activity on fungal counts: minimal activity

## gentamicin
[3]
  growth at multiple of the MIC after 30 days: 4096 times the minimum inhibitory concentration (MIC)
